# Experimental data taken from article PMC7665244 (Developmental cell, 2019).
# Target: hCFTR (human CFTR) (Homo sapiens, UniProt P13569)
# Assay: inside-out oocyte macropatch current
# Format: biochemical
# Conditions: 1 mM ATP and PKA 127.6 U/mL; potentiator
# hCFTR (human CFTR), sequence (P13569 whole entry): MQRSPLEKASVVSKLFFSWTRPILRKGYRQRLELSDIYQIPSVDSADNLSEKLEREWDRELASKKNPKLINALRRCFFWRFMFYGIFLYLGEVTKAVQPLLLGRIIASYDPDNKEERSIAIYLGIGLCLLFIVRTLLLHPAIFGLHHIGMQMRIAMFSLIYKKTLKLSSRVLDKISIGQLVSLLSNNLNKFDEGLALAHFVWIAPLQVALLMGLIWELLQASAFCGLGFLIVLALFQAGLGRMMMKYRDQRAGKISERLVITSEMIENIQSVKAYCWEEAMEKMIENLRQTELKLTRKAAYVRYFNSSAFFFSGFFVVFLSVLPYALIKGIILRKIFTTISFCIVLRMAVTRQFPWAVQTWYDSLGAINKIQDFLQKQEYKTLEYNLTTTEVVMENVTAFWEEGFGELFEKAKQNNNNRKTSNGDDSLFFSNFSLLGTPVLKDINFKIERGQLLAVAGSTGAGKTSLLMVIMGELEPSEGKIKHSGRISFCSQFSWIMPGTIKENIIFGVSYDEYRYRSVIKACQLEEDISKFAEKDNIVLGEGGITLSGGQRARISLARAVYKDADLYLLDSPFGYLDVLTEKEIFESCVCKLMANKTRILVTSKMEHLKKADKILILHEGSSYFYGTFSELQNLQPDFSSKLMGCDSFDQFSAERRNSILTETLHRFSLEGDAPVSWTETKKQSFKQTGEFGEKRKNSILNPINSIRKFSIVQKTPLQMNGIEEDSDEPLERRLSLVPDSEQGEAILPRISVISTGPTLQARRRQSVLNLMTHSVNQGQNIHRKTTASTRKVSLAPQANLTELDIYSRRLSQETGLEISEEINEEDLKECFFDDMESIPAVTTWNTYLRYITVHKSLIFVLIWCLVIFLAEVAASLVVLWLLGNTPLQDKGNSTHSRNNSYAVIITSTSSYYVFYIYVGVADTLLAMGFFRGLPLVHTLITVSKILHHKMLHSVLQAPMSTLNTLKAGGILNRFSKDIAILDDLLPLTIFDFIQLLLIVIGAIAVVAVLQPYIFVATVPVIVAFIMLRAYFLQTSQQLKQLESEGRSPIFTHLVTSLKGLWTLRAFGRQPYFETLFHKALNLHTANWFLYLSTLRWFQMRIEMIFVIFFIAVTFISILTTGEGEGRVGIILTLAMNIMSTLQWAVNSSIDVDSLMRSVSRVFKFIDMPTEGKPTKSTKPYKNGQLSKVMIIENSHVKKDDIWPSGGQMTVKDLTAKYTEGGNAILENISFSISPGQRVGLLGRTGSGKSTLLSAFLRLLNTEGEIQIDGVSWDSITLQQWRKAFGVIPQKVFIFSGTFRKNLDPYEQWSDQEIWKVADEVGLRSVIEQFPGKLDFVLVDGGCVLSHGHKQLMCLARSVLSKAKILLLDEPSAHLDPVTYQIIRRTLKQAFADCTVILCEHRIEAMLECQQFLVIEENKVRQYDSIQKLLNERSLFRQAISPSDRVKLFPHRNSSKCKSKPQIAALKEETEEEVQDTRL
compound,measurement,value
CC(C)(C)c1cc(C(C)(C)C)c(NC(=O)c2c[nH]c3ccccc3c2=O)cc1O [VX-770],fractional potentiation at 0.2 μM,"although hCFTR is potentiated, Lp-CFTR shows no enhancement of function"
